These results are taken from patent US20140303256A1 (UNIVERSITY INDUSTRY COOPERATION GROUP OF KYUNG HEE …, priority 2011, published 2014).

Experiment [1] deals with NMDA receptor. Particulars: previous report; cited from earlier work.
For experiment [2], the system named is MMP-2. The experiment in a line: MMP-2 activation by gelatin zymography of spinal cord tissue after spinal cord injury. The format is in vivo, mouse. Particulars: spinal cord tissue 1 day (peak time) after spinal cord injury, vs saline.
Procedure: (§1) Adult male C57BL/6 mice (20˜30 g) were anaesthetized with chloral hydrate (500 mg/kg) and T8˜T10 were exposed. The exposed T9 was subjected to contusion injury (by dropping a weight at the impact strength of 40 kd) using PSI (Precision Systems and Instrumentation) impactor. […] Louis, Mo.) dissolved in saline was immediately administered into injured mice via intraperitoneal injection (200 mg/kg). Saline was administered for the control. The administration was performed once a day and continued for 2 weeks. […] Then, the gel was loaded in renaturing buffer (2.5% Triton X-100), followed by incubation at room temperature for 30 minutes. The gel was loaded in developing buffer (50 mM Tris-HCl, pH 8.5, 0.2 M NaCl, 5 mM CaCl2, 0.02% Brii35), which stood at 37° C. for 24 hours. […] At this time, the clear band on the zymogram gel indicated gelatinase activity.
Experiment [3] has as its system MMP-2. The experiment in a line: MMP-2 expression by RT-PCR in spinal cord tissue after spinal cord injury. Format: in vivo. Particulars: mouse treated with fluoxetine (200 mg/kg i.p. once a day) after spinal cord injury vs saline.
Procedure: (§2) Adult male C57BL/6 mice (20˜30 g) were anaesthetized with chloral hydrate (500 mg/kg) and T8˜T10 were exposed. The exposed T9 was subjected to contusion injury (by dropping a weight at the impact strength of 40 kd) using PSI (Precision Systems and Instrumentation) impactor. After confirming that a certain damage was given within the error range based on the data of injury level, the incision sites were sealed. After disinfecting the incision sites, the mice were raised in cages (2 mice/cage). Urination was induced by massaging the bladder three times a day. […] Louis, Mo.) dissolved in saline was immediately administered into injured mice via intraperitoneal injection (200 mg/kg). Saline was administered for the control. The administration was performed once a day and continued for 2 weeks. […] Spinal nerve was cut, followed by embedding in OCT compound, which was sectioned by using a cryostat. The spinal cord tissue for the extraction of RNA and protein proceeded to perfusion with PBS. Then, the spinal cord tissue was cut 0.8 cm from the injured area, which was stored in liquid nitrogen at −80° C. until use. RNA was extracted by using TRIZOL Reagent (Invitrogen) according to manufacturer's manual. Total reaction mixture (20 μl) containing 1 μg of RNA was prepared, followed by RT-PCR using MMLV reverse transcriptase (Invitrogen). […]
In experiment [4] the test system is MMP-9. Description: MMP-9 expression by RT-PCR in spinal cord tissue after spinal cord injury. Format: in vivo. Particulars: mouse treated with fluoxetine (200 mg/kg i.p. once a day) after spinal cord injury vs saline.
Procedure: as §2
The test system of experiment [5] is macrophages. Description: Macrophage infiltration into spinal cord by flow cytometry. Format: in vivo, mouse. Particulars: flow cytometry (high CD45 and CD11b), 1 and 5 days after spinal cord injury, vs saline.
Procedure: (§3) Adult male C57BL/6 mice (20˜30 g) were anaesthetized with chloral hydrate (500 mg/kg) and T8˜T10 were exposed. The exposed T9 was subjected to contusion injury (by dropping a weight at the impact strength of 40 kd) using PSI (Precision Systems and Instrumentation) impactor. After confirming that a certain damage was given within the error range based on the data of injury level, the incision sites were sealed. After disinfecting the incision sites, the mice were raised in cages (2 mice/cage). Urination was induced by massaging the bladder three times a day. […] Louis, Mo.) dissolved in saline was immediately administered into injured mice via intraperitoneal injection (200 mg/kg). Saline was administered for the control. The administration was performed once a day and continued for 2 weeks. The spinal cord tissue was extracted 1 and 5 days after spinal cord injury, which was added into PBS. The spinal cord tissue in PBS was mechanically disrupted with a dounce homogenizer, followed by centrifugation at 1,100 rpm for 10 minutes. The obtained pellet was resuspended in FBS containing buffer, which was centrifuged at 3,000 rpm for 7 minutes. […] After washing with FBS containing buffer, neutrophils and macrophages infiltrated into spinal cord 1 and 5 days after spinal cord injury were measured by using Becton Dickinson LSR Benchtop Flow Cytometer (BD Biosciences). […]
Experiment [6] concerns CCL-3. The experiment in a line: CCL-3 chemoattractant expression by RT-PCR after spinal cord injury. Format: in vivo, mouse. Particulars: 1~5 days after spinal cord injury.
Procedure: (§4) Adult male C57BL/6 mice (20˜30 g) were anaesthetized with chloral hydrate (500 mg/kg) and T8˜T10 were exposed. The exposed T9 was subjected to contusion injury (by dropping a weight at the impact strength of 40 kd) using PSI (Precision Systems and Instrumentation) impactor. After confirming that a certain damage was given within the error range based on the data of injury level, the incision sites were sealed. After disinfecting the incision sites, the mice were raised in cages (2 mice/cage). Urination was induced by massaging the bladder three times a day. […] Louis, Mo.) dissolved in saline was immediately administered into injured mice via intraperitoneal injection (200 mg/kg). Saline was administered for the control. The administration was performed once a day and continued for 2 weeks. RNA was extracted by using TRIZOL Reagent (Invitrogen) according to manufacturer's manual. Total reaction mixture (20 μl) containing 1 μg of RNA was prepared, followed by RT-PCR using MMLV reverse transcriptase (Invitrogen).
Experiment [7] has as its system neutrophils. Description: Neutrophil infiltration into spinal cord by flow cytometry. The format is in vivo, mouse. Particulars: flow cytometry (high CD45 and Gr-1), 1 and 5 days after spinal cord injury, vs saline. A general note: Flow cytometry measures light scatter and fluorescence of single cells or particles in a stream.
Procedure: as §3
Experiment [8] concerns MMP-9. Description: MMP-9 activation by gelatin zymography of spinal cord tissue after spinal cord injury. The format is in vivo, mouse. Particulars: spinal cord tissue 1 day (peak time) after spinal cord injury, vs saline.
Procedure: as §1
Experiment [9] relates to CCL-4. Description: CCL-4 chemoattractant expression by RT-PCR after spinal cord injury. Format: in vivo, mouse. Particulars: 1~5 days after spinal cord injury.
Procedure: as §4
For experiment [10] the following is noted: maximal electroshock convulsion test in mouse; Leander 1992; cited from earlier work.
Experiment [11] deals with ZO-1. The experiment in a line: ZO-1 immunohistochemical staining of spinal cord sections after spinal cord injury. Format: in vivo, mouse. Particulars: tissue sections after spinal cord injury, vs saline.
Procedure: Adult male C57BL/6 mice (20˜30 g) were anaesthetized with chloral hydrate (500 mg/kg) and T8˜T10 were exposed. The exposed T9 was subjected to contusion injury (by dropping a weight at the impact strength of 40 kd) using PSI (Precision Systems and Instrumentation) impactor. After confirming that a certain damage was given within the error range based on the data of injury level, the incision sites were sealed. After disinfecting the incision sites, the mice were raised in cages (2 mice/cage). Urination was induced by massaging the bladder three times a day. […] Louis, Mo.) dissolved in saline was immediately administered into injured mice via intraperitoneal injection (200 mg/kg). Saline was administered for the control. The administration was performed once a day and continued for 2 weeks. […] Spinal nerve was cut, followed by embedding in OCT compound, which was sectioned by using a cryostat. […] 10 μm tissue sections were reacted under the condition proposed in each primary antibody manual, followed by color development by using secondary antibodies. For immunofluorescence staining, secondary antibodies of Jackson were used. For DAB color development, Vectastatin kit (Vector) was used.
Experiment [12] deals with MMP-12. Description: MMP-12 expression by RT-PCR in spinal cord tissue after spinal cord injury. Format: in vivo. Particulars: mouse treated with fluoxetine (200 mg/kg i.p. once a day) after spinal cord injury vs saline.
Procedure: as §2
Experiment [13] concerns spinal cord injury mouse. Description: Animal behavioral test (BBB test), recovery of exercise function after spinal cord injury. The format is in vivo.
Procedure: Adult male C57BL/6 mice (20˜30 g) were anaesthetized with chloral hydrate (500 mg/kg) and T8˜T10 were exposed. The exposed T9 was subjected to contusion injury (by dropping a weight at the impact strength of 40 kd) using PSI (Precision Systems and Instrumentation) impactor. After confirming that a certain damage was given within the error range based on the data of injury level, the incision sites were sealed. After disinfecting the incision sites, the mice were raised in cages (2 mice/cage). Urination was induced by massaging the bladder three times a day. […] Louis, Mo.) dissolved in saline was immediately administered into injured mice via intraperitoneal injection (200 mg/kg). Saline was administered for the control. The administration was performed once a day and continued for 2 weeks. BBB test is the method to evaluate the recovery of various nerve fascicles controlling exercise function in combination, in which scores are recorded from 0 to 21. […] A normal mouse got 21 scores for that. So, the exercise function is regarded to be improved as the score got higher. […] The mice were let go freely in the box so as for the mice to be adapted to the experimental environment. […] The average of BBB test scores obtained from those five trained experimenters was considered as the final BBB score for the mouse. To eliminate personal prejudice on the test animal, the experimenters were not given any information on the mice. They only observed the mice 4 minutes every time to give scores.
In experiment [14] the test system is ZO-1. The experiment in a line: ZO-1 (tight junction protein) amount by western blot after spinal cord injury. Format: in vivo, mouse. Particulars: vs saline. (Immunoblotting shows a protein as a band on a membrane.)
Procedure: Adult male C57BL/6 mice (20˜30 g) were anaesthetized with chloral hydrate (500 mg/kg) and T8˜T10 were exposed. The exposed T9 was subjected to contusion injury (by dropping a weight at the impact strength of 40 kd) using PSI (Precision Systems and Instrumentation) impactor. After confirming that a certain damage was given within the error range based on the data of injury level, the incision sites were sealed. After disinfecting the incision sites, the mice were raised in cages (2 mice/cage). Urination was induced by massaging the bladder three times a day. […] Louis, Mo.) dissolved in saline was immediately administered into injured mice via intraperitoneal injection (200 mg/kg). Saline was administered for the control. The administration was performed once a day and continued for 2 weeks. […] The protein was transferred onto nitrocellulose membrane, followed by western blot according to the protocol described in each antibody data sheet.

For `C[C@]12N[C@H](Cc3ccccc31)c1ccccc12` [MK-801], the “neurotoxic effect of Aβ” value in experiment [1] was “inhibited”.
With `CNCCC(Oc1ccc(C(F)(F)F)cc1)c1ccccc1` (stereo not shown) [fluoxetine], the “MMP-2 activity (gelatinase activity)” value in [2] is recorded as “significantly reduced”. Besides, the “expression of MMP-2” value in [3] is “significantly reduced”. In addition, the “expression of MMP-9” value in [4] was “significantly reduced”. The “number of macrophages in spinal cord tissues” value in [5] is listed as “significantly reduced”. Also, the “expression of CCL-3” value in experiment [6] is listed as “suppressed”. In experiment [7], the “number of neutrophils in spinal cord tissues” value is “significantly reduced”. In addition, the “MMP-9 activity (gelatinase activity)” value in [8] is recorded as “significantly reduced”. The “expression of CCL-4” value in experiment [9] is on record as “suppressed”. For the same compound, the “anticonvulsant effects of carbamazepine, phenytoin, and ameltolide” value in experiment [10] is listed as “increased”. Further, the “ZO-1 (immunohistochemical staining)” value in experiment [11] is on record as “hardly reduced”. Further, the “expression of MMP-12” value in [12] is listed as “significantly reduced”. Further, in experiment [13] (672 h), the “crossing frequency of forelegs and hind legs during walking” value is given as “approximately 50%”. Besides, in experiment [13] (from 1 week after spinal cord injury, compared with saline only), the “BBB points, course” value was “began to increase”. The compound further had a BBB point in [13] (ip, 200 mg/kg) of 10.2±0.92. Moreover, the “amount of ZO-1” value in experiment [14] is reported as “not reduced”.
